Results on four compounds are retold here after US20190269730A1, “REGULATABLE CELL LINES AND METHODS OF USE THEREOF” (Auxolytic Ltd, priority 2016, published 2019).

Molecules are shown by their SMILES.

Assay [1] has as its system UMPS edited human T cells. Description: Growth of heterogeneous UMPS edited T cell population with/without exogenous uracil source (cell counts). The assay is classed as cell-based. The settings on record: UMP or Uridine added at 250 ug/ml; no selection step; compared with mock edited and CCR5 targeted controls. On the procedure:
Cells were cryopreserved in Bambanker medium. After thawing cells were cultured at 37° C., 5% CO2 in X-Vivo 15 (Lonza) supplemented with or without 5% human serum (Sigma-Aldrich) and 100 IU/ml human recombinant IL-2 (Peprotech) and 10 ng/ml human recombinant IL-7 (BD Biosciences). UMP or Uridine were added at 250 ug/ml. 5-FOA was added at 100 ug/ml to 1 mg/ml. During culture, medium was refreshed every 2 days. T cells were activated using immobilized Anti-CD3 (clone OKT3, Tonbo Biosciences) and soluble anti-CD28 (clone CD28.2, Tonbo Biosciences) for 3 days before electroporation. For the experiments in FIGS. 1, 3 and 4, 1.4 million activated T cells were electroporated. For the experiments in FIG. 2, 30,000 activated T cells were electroporated per condition. These cells were resuspended in electroporation solution, mixed with the pre-complexed RNP and electroporated using a 4D-Nucleofector (Lonza) using program EO-115. The RNP consisted of Cas9 protein (Alt-R® S. pyogenes, IDT) at 300 ug/ml and sgRNA using a sgRNA:Cas9 molar ratio of 2.5. Genomic DNA was harvested using QuickExtract (Epicentre). Cells were counted on an automated cell counter using Trypan blue staining or on a Cytoflex (Beckman Coulter) flow cytometer using CountBright beads (ThermoFisher) as a reference. Data was analyzed using Excel (Microsoft) and FlowJo (Tree Star). […]

In a further assay the test system is human T cells. Description: 5-FOA resistance assay of UMPS targeted vs mock targeted T cells (cell counts after 4 days). The assay is classed as cell-based. The conditions noted are these: for survival / viability of cells in 5-FOA: mock treated and UMPS targeted T cells grown in 5-FOA for 4 days, UMP or Uridine 250 ug/ml, 5% human serum. On the procedure: (§1) Cells were cryopreserved in Bambanker medium. After thawing cells were cultured at 37° C., 5% CO2 in X-Vivo 15 (Lonza) supplemented with or without 5% human serum (Sigma-Aldrich) and 100 IU/ml human recombinant IL-2 (Peprotech) and 10 ng/ml human recombinant IL-7 (BD Biosciences). UMP or Uridine were added at 250 ug/ml. 5-FOA was added at 100 ug/ml to 1 mg/ml. During culture, medium was refreshed every 2 days.
(§2) Genomic DNA was harvested using QuickExtract (Epicentre). Cells were counted on an automated cell counter using Trypan blue staining or on a Cytoflex (Beckman Coulter) flow cytometer using CountBright beads (ThermoFisher) as a reference. Data was analyzed using Excel (Microsoft) and FlowJo (Tree Star).
5-FOA selects for uracil auxotrophic cells in other organisms (e.g. Boeke et al. 1984, Mol. Gen. Genet. 197(2):345-6). To investigate the potential utility of 5-FOA for the selection of uracil auxotrophs in human cells, the UMPS gene was targeted in human T cells by Cas9-gRNA complex electroporation followed by recovery (as in Example 2) followed by an assay of resistance to 5-FOA treatment (FIG. 3A). Cells were grown in 5-FOA and a variety of combinations of serum and uracil sources for 4 days before cell counting was performed. […] This is likely through a competition based mechanism (uridine can reverse 5-fluorouracil toxicity in humans (van Groeningen et al. 1992, Semin. Oncol. 19(2 Suppl 3):148-54)) (FIGS. 3B and C).

Assay [2] has as its system 5-FOA selected UMPS targeted T cells. Description: Uracil auxotrophy growth assay of 5-FOA selected T cells (cell counts at day 8). The assay is classed as cell-based, human. As for the experimental part: as §1, §2
To assay whether or not the cells selected for by 5-FOA treatment are uracil auxotrophs, mock or UMPS targeted T cells were exposed to 5-FOA as in Example 4. Following 4 days of 5-FOA selection, the population of cells was split into a uracil containing media (either UMP, uridine or both) and a uracil deficient media. A growth assay was subsequently performed by cell counting after following 4 days incubation in test media (day 8) (FIG. 4A).

Take `O=c1ccn([C@@H]2O[C@H](CO)[C@@H](O)[C@H]2O)c(=O)[nH]1` [uridine]: in assay [1], the “growth of UMPS edited cells” value was “rescue the growth of UMPS edited cells to the same level as mock edited and CCR5 targeted controls”. Moreover, the “survival / viability of cells in 5-FOA” value with human T cells was “improved the survival of both mock treated and UMPS targeted cells in 5-FOA”. Regarding `O=c1cc[nH]c(=O)[nH]1` [uracil], the “cell growth of 5-FOA selected UMPS targeted population” value in assay [2] (4 days in uracil containing (UMP, uridine or both) vs uracil deficient media after 4 days of 5-FOA selection) is listed as “cell growth was stimulated”. On to `O=c1ccn([C@@H]2O[C@H](COP(=O)(O)O)[C@@H](O)[C@H]2O)c(=O)[nH]1` [UMP], for which the “growth of UMPS edited cells” value in assay [1] is “rescue the growth of UMPS edited cells to the same level as mock edited and CCR5 targeted controls”. Besides, in the assay on human T cells, the “survival / viability of cells in 5-FOA” value was “improved the survival of both mock treated and UMPS targeted cells in 5-FOA”. Turning to `O=C(O)c1[nH]c(=O)[nH]c(=O)c1F` [5-FOA, 5-fluoroorotic acid], the “toxicity of 5-FOA” value in the assay with human T cells (UMPS targeted vs mock targeted T cells, 4 days of 5-FOA selection, 100 ug/ml to 1 mg/ml) was “less toxic in UMPS targeted cell lines”. Also, the “killing of non-UMPS targeted cells during 5-FOA selection” value in assay [2] (mock targeted T cell cultures, growth negligible after selection) is “successful killing of non-UMPS targeted cells”.
